One series addresses T1, MAGL enzyme (Homo sapiens, UniProt Q99685).
T1 sequence (Q99685 1-303): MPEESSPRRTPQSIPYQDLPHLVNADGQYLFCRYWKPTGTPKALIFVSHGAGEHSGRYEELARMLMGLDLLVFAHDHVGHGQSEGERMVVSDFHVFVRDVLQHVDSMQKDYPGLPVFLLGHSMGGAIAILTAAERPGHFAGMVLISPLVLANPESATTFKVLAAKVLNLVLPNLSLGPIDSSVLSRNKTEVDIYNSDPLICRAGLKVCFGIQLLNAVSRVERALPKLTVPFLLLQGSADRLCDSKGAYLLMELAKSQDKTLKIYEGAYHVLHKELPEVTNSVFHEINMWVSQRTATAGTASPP
Kind of series: MAGL reversible inhibition assay (washout), Example 22. The series is classed as biochemical. Set-up: % MAGL activity returning after washout: concentration or dose not given beside the values.

The nature of series [1]: Plasma and brain concentrations after single intraperitoneal administration, Examples 23 and 24. The series is classed as in vivo, male C57BL/6 mice. As to conditions: male, C57BL/6, mouse, IP 20 mg/kg. On the procedure: This experiment was performed to determine plasma pharmacokinetics and estimate 2-AG levels in male C57BL/6 mice brain following a single intraperitoneal administration of Compound-74 (Dose: 5, 15, 50 and 150 mg/kg). The experiment was repeated at 150 mg/kg on 3 separate test dates to obtain the data shown in FIG. 1A (plasma and brain concentration of Compound 74 30 minutes after IP injection), and on the first and third test dates to obtain the data shown in FIG. 1B (brain concentration of 2-AG30 minutes after IP injection of Compound 74). • Compound 74, Molecular Wt.: 405.46 (Freebase), % Purity: Considered 100%. • Formulation: DMSO • Dose: 5, 15, 50 and 150 mg/kg • Dose volume: 2 mL/kg • Feeding regimen: freely fed • Groups:
Study Design: A total of thirty male mice were used into the study and divided in to five groups with six mice in each group (n=6 mice/group/treatment design). Animals in Group 1 to Group 4 were administered intraperitoneally with Compound 74 solution formulation at 5, 15, 50 and 150 mg/kg dose, respectively. Animals in Group 5 were administered intraperitoneally with vehicle at 2 mL/kg dose. Blood and brain samples were collected at 0.5 h post dose. Mice were euthanized by cervical dislocation and brain samples were dissected rapidly and snap frozen in liquid nitrogen, weighed and homogenized in 2 mL of acetonitrile containing 2-AGd5. Blood samples were centrifuged at 4000 rpm for 10 minutes at 4° C. Plasma was harvested and separated in pre-labeled tubes. All samples were stored below −70° C. until bioanalysis.
Analysis: Brain samples were processed for 2-AG estimation. 2-AG levels were the detected values. Plasma concentrations were determined by fit for purpose LC-MS/MS method. LLOQ: 5.09 ng/mL (Plasma and brain)
This experiment was performed to determine plasma pharmacokinetics and estimate 2-AG levels in male C57BL/6 mice brain following a single intraperitoneal administration of Compound-473 (Dose: 20 mg/kg). • Compound 473, Molecular Wt.: 463.41 (Freebase), % Purity: >98%. • Formulation: DMSO • Dose: 20 mg/kg • Dose volume: 10 mL/kg • Feeding regimen: Food and water ad libitum • Groups:
Study Design: A total of twelve C57BL/6 male mice were used in this study. Six animals were administered intraperitoneally with solution formulation of PSY-05-00473-002 at 20 mg/kg dose. Six animals were administered vehicle (5% NMP, 5% Solutol HS15 and 90% Normal saline) intraperitoneally at 10 mL/kg dose volume. Blood samples (approximately 60 μL) were collected under light isoflurane anesthesia from a set of six mice at 0.5 h. Plasma was harvested by centrifugation of blood and stored at −70±10° C. until analysis. After blood collection, mice were euthanized by cervical dislocation and brain samples were dissected rapidly and snapped frozen in liquid nitrogen and stored at −80. To homogenize, removed brain samples from the freezer, were divided into two equal hemispheres and weighed while still in frozen condition, and begun homogenization/extraction procedure without allowing the brain samples to thaw. One part is used for PK estimation and the other part is used for 2-AG estimation.
Analysis: For PK estimation, brain samples were homogenized in 2 volumes of PBS of brain weight. Total homogenate volume was three times of the brain weight. For 2-AG estimation, the frozen brain samples were homogenized in 2 mL acetonitrile containing 2-AGd5 (8.88 nmoles) will be incubated overnight at −20° C. to precipitate proteins. Blood samples were centrifuged at 10000 rpm for 10 minutes at 4° C. All samples were stored below −70° C. until bioanalysis. Plasma and brain homogenate samples were quantified by fit-for-purpose LC-MS/MS method (LLOQ: 1.02 ng/mL for plasma and 2.03 ng/mL for brain).

Each structure is given as a SMILES string. Read-outs that look alike come from different tables or passages of the source.

With `O=C(c1cc(O)ccc1F)N1CC2(CC(n3cc(C(F)(F)F)c(-c4ccccc4F)n3)C2)C1` (single isomer, unassigned) [Compound 473, (2-fluoro-5-hydroxyphenyl){6-[3-(o-fluorophenyl)-4-(trifluoromethyl)-1-pyrazolyl]-2-aza-2-spiro[3.3]heptyl}methanone], at MAGL enzyme (pre-washout compound concentration 1 μM), the “degree to which MAGL enzymatic activity returned following washout of test compounds” value turned out to be 41. Further, at MAGL enzyme (relative to control (no inhibitor before washout), immediately following 30 minute washout), the “% MAGL activity returning after washout” value is given as below 50%. Moreover, the concentration at 0.5 h in series [1] (brain, read-out: Brain Concentration (ng/g), Mean) was 2630 ng/g; in series [1] (plasma, read-out: Plasma Concentration (ng/mL), Mean), 1820 ng/mL. Also, in series [1] (brain/plasma, read-out: Brain/Plasma Ratio (kp), Mean), the Kp at 0.5 h was determined as 1.44.

These data come from patent US20250170101A1, “MONOACYLGLYCEROL LIPASE INHIBITORS AND USE THEREOF FOR THE TREATMENT AND MANAGEMENT OF PAIN AND RELATED CONDITIONS” (Psy Therapeutics, Inc., priority 2021, published 2025).
